Measurements as given in patent US20130225539A1, “METHOD FOR PRODUCING CRYSTALLINE 5-AMINOSALICYLIC ACID” (Pharmazell GMBH, priority 2010, published 2013).
Read-outs that look alike come from different tables or passages of the source.

What was measured:
Assay type in all cases: physicochemical
[1] = Bulk density (USP 616, Method 1); details: crystalline powder
Procedure: (§1) The bulk density and tapped density are measured by methods known to the skilled person, such as those described in the USP (“United States Pharmacopeia”) monograph, e.g., USP 27, Vol. 1, pp. 226 to 227, May 1, 2009-Apr. 30, 2010, Bulk Density 616, Method 1, Tapped Density 616, Method 2. The measurement of the grain size distribution is effected according to the protocols of European Pharmacopeia, Supplement 6.6, Chapter 2.9.31 “Particle Size Analysis by Laser Light Diffraction” pp. 5103-5107.

[2] = Grain size distribution by laser light diffraction (Ph. Eur. 2.9.31)
Procedure: as §1
(§2) The crystals are described by their particle size distribution as observed by laser diffraction, their optical micrograph image and their aspect ratio which can be determined, for example, by means of image analysis using the Malvern Symex FPIA 3000.

[3] = Tapped density (USP 616, Method 2); details: crystalline powder
Procedure: as §1

[4] = Crystal shape by image analysis (Malvern Sysmex FPIA 3000): aspect ratio, circularity; details: for Aspect ratio (width/length; w/l): main fraction of the crystals
From the text: as §2
The aspect ratio (width/length; w/l) is expressed by a proportion. In the case of the 5-ASA according to the invention having a particularly high bulk density, the main fraction of the crystals has an aspect ratio around 0.5. From this, a width to length ratio of w/l of 1:2 can be calculated. In the 5-ASA having a high bulk density according to the invention, the aspect ratio is around 0.36, thus corresponding to a width to length ratio of 1:3. The different aspect ratios of the 5-ASA crystal fractions according to the invention having high and particularly high bulk densities bring about the different bulk and tapped densities and the differently broad grain size distributions seen in the laser diffractograms according to FIG. 10 and FIG. 11.
The measured value of circularity describes the deviation of the crystal shape from ideal spherical shape. A value of 1 corresponds to an ideal sphere.

[5] = listed as 5-ASA coarse crystals

Row | Bulk density [1] [g/L] | Bulk density [1, 5] [g/L] | Grain size distribution X(10) [2] | Grain size distribution X(50) [2] | Grain size distribution X(90) [2] | Grain size distribution X(10) [2, 5] | Grain size distribution X(50) [2, 5] | Grain size distribution X(90) [2, 5] | Tapped density [3] [g/L] | Tapped density [3, 5] [g/L] | Bulk density ([1]; listed as 5-ASA fine crystals) [g/L] | Grain size distribution X(10) ([2]; listed as 5-ASA fine crystals) | Grain size distribution X(50) ([2]; listed as 5-ASA fine crystals) | Grain size distribution X(90) ([2]; listed as 5-ASA fine crystals) | Tapped density ([3]; listed as 5-ASA fine crystals) [g/L] | Circularity ([4]; 1 = ideal sphere) | Aspect ratio (width/length; w/l) ([4]; listed as 5-ASA according to the invention having a particularly high bulk density) | Aspect ratio (width/length; w/l) ([4]; listed as 5-ASA having a high bulk density according to the invention) | Structure (SMILES)
1 | 250 to 270 | 250 to 270 | X (10) = 10-15 μm | X (50) = 50-60 μm | X (90) = 200-220 μm | X(10) = 10-15 μm | 50-60 μm | 200-220 μm | 450 to 480 | 450 to 480 | – | – | – | – | – | – | – | – | Nc1ccc(O)c(C(=O)O)c1 [5-ASA coarse acicular crystals, 5-aminosalicylic acid]
2 | 150 to 190 | – | X (10) = 2-6 μm | X (50) = 8-20 μm | X (90) = 25-50 μm | – | – | – | 300 to 390 | – | 150 to 190 | X(10) = 2-6 μm | 8-20 μm | 25-50 μm | 300 to 390 | – | – | – | Nc1ccc(O)c(C(=O)O)c1 [5-ASA fine acicular crystals, 5-aminosalicylic acid]
3 | 400 to 500 | – | X(10) = 7-10 μm | 25-35 μm | 80-90 μm | – | – | – | 600 to 800 | – | – | – | – | – | – | ~0.8 | around 0.5 | – | Nc1ccc(O)c(C(=O)O)c1 [Example 1, 5-aminosalicylic acid]
4 | 300 to 400 | – | X(10) = 3-5 μm | 15-45 μm | 90-100 μm | – | – | – | 510 to 700 | – | – | – | – | – | – | – | – | around 0.36 | Nc1ccc(O)c(C(=O)O)c1 [Example 2, 5-aminosalicylic acid]
